Laboratory results as given in patent publication US20120029187A1, “HALOALKYLSULFONANILIDE DERIVATIVE” (Nissan Chemical Industries, Ltd., priority 2009, published 2012).

Legend:
Format in all cases: in vivo
barnyardgrass [1] = assay: Test Example 1: herbicidal effects in preemergence treatment under submerged conditions; conditions: dose 2.52 g/a
In short: (§1)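 Alluvial soil was flooded to 4 cm, sown with barnyardgrass, bulrush and ducksalad, and planted with 2.5-leaf rice seedlings. On the seeding day, water-diluted emulsifiable concentrates were applied to the water surface at set doses (g/a). After three weeks in a 25 to 30° C. greenhouse, mortality was scored 0–5.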

bulrush [2] = assay: as above; conditions: dose 2.52 g/a
In short: as §1

ducksalad [3] = assay: as above; conditions: dose 2.52 g/a
In short: as §1

transplanted rice = assay: Test Example 1: preemergence treatment under submerged conditions, effect on crop; conditions: dose 2.52 g/a
In short: as §1

barnyardgrass [4] = assay: Test Example 2: herbicidal effects during the vegetation period under submerged conditions; conditions: treatment during the vegetation period under submerged conditions; dose 2.52 g/a
In short: (§2)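 Barnyardgrass, bulrush and ducksalad were co-sown in alluvial soil flooded to 4 cm and grown in a greenhouse at 25 to 30° C. At the 1- or 2-leaf stage, water-diluted emulsifiable concentrates went onto the water surface at set doses (g/a). Herbicidal effect was scored three weeks later on a graded scale.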

bulrush [5] = assay: as above; conditions: treatment during the vegetation period under submerged conditions; dose 2.52 g/a
In short: as §2

ducksalad [6] = assay: as above; conditions: treatment during the vegetation period under submerged conditions; dose 2.52 g/a
In short: as §2

Italian ryegrass [7] = assay: Test Example 3: herbicidal effects in soil treatment; conditions: dose 3.2 g/a
In short: (§3)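 Seeds were sown in sterilized diluvial soil and covered with about 1.5 cm of soil. Compounds, formulated as emulsifiable concentrates and diluted with water, were sprayed evenly over the soil surface at set doses in g/a. Herbicidal effect was scored on a rating scale three weeks later.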

barnyardgrass [8] = assay: as above; conditions: dose 3.2 g/a
In short: as §3

common chickweed [9] = assay: as above; conditions: dose 3.2 g/a
In short: as §3

common lambsquater [10] = assay: as above; conditions: dose 3.2 g/a
In short: as §3

common ragweed [11] = assay: as above; conditions: dose 3.2 g/a
In short: as §3

giant foxtail [12] = assay: as above; conditions: dose 3.2 g/a
In short: as §3

large crabgrass [13] = assay: as above; conditions: dose 3.2 g/a
In short: as §3

posumbu knotweed [14] = assay: as above; conditions: dose 3.2 g/a
In short: as §3

redroot pigweed [15] = assay: as above; conditions: dose 3.2 g/a
In short: as §3

velvetleaf [16] = assay: as above; conditions: dose 3.2 g/a
In short: as §3

water foxtail [17] = assay: as above; conditions: dose 3.2 g/a
In short: as §3

Italian ryegrass [18] = assay: Test Example 4: herbicidal effect in foliage treatment; conditions: dose 3.2 g/a, three weeks after application
In short: (§4)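 A uniform foliar spray of emulsifiable concentrate, diluted with water to give the stated g/a dose, was applied to plants raised for 14 days from seed in sterilized diluvial soil at 25 to 30° C. Herbicidal effects were scored three weeks later.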

barnyardgrass [19] = assay: as above; conditions: dose 3.2 g/a, three weeks after application
In short: as §4

beadstraw = assay: as above; conditions: dose 3.2 g/a, three weeks after application
In short: as §4

common chickweed [20] = assay: as above; conditions: dose 3.2 g/a, three weeks after application
In short: as §4

common lambsquater [21] = assay: as above; conditions: dose 3.2 g/a, three weeks after application
In short: as §4

common ragweed [22] = assay: as above; conditions: dose 3.2 g/a, three weeks after application
In short: as §4

giant foxtail [23] = assay: as above; conditions: dose 3.2 g/a, three weeks after application
In short: as §4

large crabgrass [24] = assay: as above; conditions: dose 3.2 g/a, three weeks after application
In short: as §4

posumbu knotweed [25] = assay: as above; conditions: dose 3.2 g/a, three weeks after application
In short: as §4

redroot pigweed [26] = assay: as above; conditions: dose 3.2 g/a, three weeks after application
In short: as §4

velvetleaf [27] = assay: as above; conditions: dose 3.2 g/a, three weeks after application
In short: as §4

water foxtail [28] = assay: as above; conditions: dose 3.2 g/a, three weeks after application
In short: as §4

| SMILES | A: barnyardgrass, herbicidal effect (evaluation scale 0-5) (barnyardgrass [1]) | B: bulrush, herbicidal effect (evaluation scale 0-5) (bulrush [2]) | C: ducksalad, herbicidal effect (evaluation scale 0-5) (ducksalad [3]) | a: transplanted rice, effect on crop (evaluation scale 0-5) (transplanted rice) | A: barnyardgrass, herbicidal effect (evaluation scale 0-5) (barnyardgrass [4]) | B: bulrush, herbicidal effect (evaluation scale 0-5) (bulrush [5]) | C: ducksalad, herbicidal effect (evaluation scale 0-5) (ducksalad [6]) | H: Italian ryegrass, herbicidal effect (evaluation scale 0-5) (Italian ryegrass [7]) | A: barnyardgrass, herbicidal effect (evaluation scale 0-5) (barnyardgrass [8]) | N: common chickweed, herbicidal effect (evaluation scale 0-5) (common chickweed [9]) | L: common lambsquater, herbicidal effect (evaluation scale 0-5) (common lambsquater [10]) | J: common ragweed, herbicidal effect (evaluation scale 0-5) (common ragweed [11]) | E: giant foxtail, herbicidal effect (evaluation scale 0-5) (giant foxtail [12]) | D: large crabgrass, herbicidal effect (evaluation scale 0-5) (large crabgrass [13]) | M: posumbu knotweed, herbicidal effect (evaluation scale 0-5) (posumbu knotweed [14]) | K: redroot pigweed, herbicidal effect (evaluation scale 0-5) (redroot pigweed [15]) | I: velvetleaf, herbicidal effect (evaluation scale 0-5) (velvetleaf [16]) | G: water foxtail, herbicidal effect (evaluation scale 0-5) (water foxtail [17]) | H: Italian ryegrass, herbicidal effect (Italian ryegrass [18]) | A: barnyardgrass, herbicidal effect (barnyardgrass [19]) | also measured |
| --- | --- | --- | --- | --- | --- | --- | --- | --- | --- | --- | --- | --- | --- | --- | --- | --- | --- | --- | --- | --- | --- |
| CCOC(=O)N(c1ccccc1CN1COC(C)(C(F)(F)F)CC1=O)S(=O)(=O)C(F)(F)F (stereo not drawn) [II-49] | 5 (mortality of 90% or above (nearly complete death)) | 5 (mortality of 90% or above (nearly complete death)) | 5 (mortality of 90% or above (nearly complete death)) | 0 (mortality of less than 5% (almost ineffective)) | 5 (mortality of 90% or above (nearly complete death)) | 5 (mortality of 90% or above (nearly complete death)) | 5 (mortality of 90% or above (nearly complete death)) | 3 (mortality of at least 40% and less than 70%) | 3 (mortality of at least 40% and less than 70%) | 4 (mortality of at least 70% and less than 90%) | 2 (mortality of at least 20% and less than 40%) | 4 (mortality of at least 70% and less than 90%) | 3 (mortality of at least 40% and less than 70%) | 3 (mortality of at least 40% and less than 70%) | 4 (mortality of at least 70% and less than 90%) | 0 (mortality of less than 5% (almost ineffective)) | 0 (mortality of less than 5% (almost ineffective)) | 5 (mortality of 90% or above (nearly complete death)) | 0 (mortality of less than 5% (almost ineffective)) | 4 (mortality of at least 70% and less than 90%) | O: beadstraw, herbicidal effect (beadstraw): 4 (mortality of at least 70% and less than 90%); N: common chickweed, herbicidal effect (common chickweed [20]): 3 (mortality of at least 40% and less than 70%); L: common lambsquater, herbicidal effect (common lambsquater [21]): 3 (mortality of at least 40% and less than 70%); J: common ragweed, herbicidal effect (common ragweed [22]): 3 (mortality of at least 40% and less than 70%); E: giant foxtail, herbicidal effect (giant foxtail [23]): 3 (mortality of at least 40% and less than 70%); D: large crabgrass, herbicidal effect (large crabgrass [24]): 0 (mortality of less than 5% (almost ineffective)); M: posumbu knotweed, herbicidal effect (posumbu knotweed [25]): 3 (mortality of at least 40% and less than 70%); K: redroot pigweed, herbicidal effect (redroot pigweed [26]): 0 (mortality of less than 5% (almost ineffective)); I: velvetleaf, herbicidal effect (velvetleaf [27]): 0 (mortality of less than 5% (almost ineffective)); G: water foxtail, herbicidal effect (water foxtail [28]): 3 (mortality of at least 40% and less than 70%) |
| CC1(CC(F)(F)F)CC(=O)N(Cc2ccccc2NS(=O)(=O)C(F)(F)F)CO1 (stereo not drawn) [II-51] | 5 (mortality of 90% or above (nearly complete death)) | 5 (mortality of 90% or above (nearly complete death)) | 5 (mortality of 90% or above (nearly complete death)) | 0 (mortality of less than 5% (almost ineffective)) | 5 (mortality of 90% or above (nearly complete death)) | 4 (mortality of at least 70% and less than 90%) | 5 (mortality of 90% or above (nearly complete death)) | 3 (mortality of at least 40% and less than 70%) | 5 (mortality of 90% or above (nearly complete death)) | 5 (mortality of 90% or above (nearly complete death)) | 0 (mortality of less than 5% (almost ineffective)) | 4 (mortality of at least 70% and less than 90%) | 4 (mortality of at least 70% and less than 90%) | 5 (mortality of 90% or above (nearly complete death)) | 5 (mortality of 90% or above (nearly complete death)) | 0 (mortality of less than 5% (almost ineffective)) | 5 (mortality of 90% or above (nearly complete death)) | 5 (mortality of 90% or above (nearly complete death)) | 3 (mortality of at least 40% and less than 70%) | 5 (mortality of 90% or above (nearly complete death)) | O: beadstraw, herbicidal effect (beadstraw): 4 (mortality of at least 70% and less than 90%); N: common chickweed, herbicidal effect (common chickweed [20]): 5 (mortality of 90% or above (nearly complete death)); L: common lambsquater, herbicidal effect (common lambsquater [21]): 3 (mortality of at least 40% and less than 70%); J: common ragweed, herbicidal effect (common ragweed [22]): 3 (mortality of at least 40% and less than 70%); E: giant foxtail, herbicidal effect (giant foxtail [23]): 4 (mortality of at least 70% and less than 90%); D: large crabgrass, herbicidal effect (large crabgrass [24]): 4 (mortality of at least 70% and less than 90%); M: posumbu knotweed, herbicidal effect (posumbu knotweed [25]): 5 (mortality of 90% or above (nearly complete death)); K: redroot pigweed, herbicidal effect (redroot pigweed [26]): 0 (mortality of less than 5% (almost ineffective)); I: velvetleaf, herbicidal effect (velvetleaf [27]): 4 (mortality of at least 70% and less than 90%); G: water foxtail, herbicidal effect (water foxtail [28]): 5 (mortality of 90% or above (nearly complete death)) |
